A short description of series [1]: Primary screening of photostability of the CyNA library (time-course fluorescence, 8 h). It is filed as physicochemical. Also on record: F/Fo, fluorescent intensity at 8 hours vs 0 hours: unit: %. As to conditions: 10 μM in HEPES 100 mM pH 7.4, 2% DMSO. As for the experimental part:
As a primary evaluation of photo stability, the decrease in fluorescence intensity of the 80 CyNA compounds was measured (see Table 2). The average decrease in fluorescence intensity after 8 hours of irradiation by a xenon lamp was approximately 18%. A subset of the most photostable compounds (i.e., F/Fo reported in Table 2 was greater than or equal to 95) was examined under stronger irradiation in various buffers.
10-μM CyNA solutions in 100 mM HEPES buffer (pH 7.4) containing 2% DMSO were placed in a 96-well black plate, and fluorescence intensity measurements were recorded every 10 minutes for a total period of 8 hours (excitation-emission: 790-820 nm). A subset of fourteen compounds selected according to their F8h/Fo quotients, quantum yields and maximum relative fluorescence units (RFU) values was further evaluated in a secondary screening

A short description of series [2]: Absorbance and fluorescence maximum wavelengths and quantum yields of the CyNA library. As to conditions: for λabs, absorbance maximum wavelength / λem, fluorescence maximum wavelength: CyNA library; for φ, quantum yield: in DMSO, Cardiogreen as standard. It is filed as physicochemical. As for the experimental part: Since the k values of the different CyNA compounds indicated some dependency on the chemical structure of the amine, the CyNA scaffold was derivatized with a broad range of primary amines (FIGS. 4A-4C). The fluorescence properties of the 80-member CyNA library were measured. The absorption maximum wavelengths ranged from 802 nm to 806 nm, emission maximum wavelengths ranged from 817 nm to 823 nm, and the average quantum yield was approximately 0.10 (Table 2).
All the chemicals (building block amines plus others) and solvents were purchased from Sigma Aldrich, Alfa Aesar, Fluka, MERCK or Acros, and used without further purification. ^1H-NMR and ^13C-NMR spectra were recorded on Bruker Avance 300 NMR and 500 NMR spectrometers, and chemical shifts are expressed in parts per million (ppm). High-resolution mass spectrometry (HRMS) data was recorded on a Micromass VG 7035. Photobleaching experiments were performed using a UVP Blak-Ray® B-100AP high intensity UV lamp (100 W, 365 nm) Spectroscopic and quantum yield data were measured on a SpectraMax M2 spectrophotometer (Molecular Devices), and the data analysis was performed using GraphPrism 5.0. Photobleaching measurements were performed using an Eclipse Ti-U Nikon microscope (filter cube: 750/800) attached to Ti:sappire oscillator that operated in continuous wave mode, and the data was processed using the software NIS-Elements 3.10. In vivo images were taken in an IVIS Spectrum imaging system (Caliper Life Sciences).

In the case of `CCCN1/C(=C/C=C2\CCCC(/C=C/C3=[N+](CCC)c4ccccc4C3(C)C)=C2N(Cc2ccccc2Br)C(C)=O)C(C)(C)c2ccccc21` [CyNA-329], in series [1], the “F/Fo, fluorescent intensity at 8 hours vs 0 hours” value (shortened to “F/Fo … vs 0 hours”) came to 99 and the “max RFU, maximum relative fluorescence units” value was 348.8. Besides, in series [2], the “λabs, absorbance maximum wavelength” value was 806 nm; the “λem, fluorescence maximum wavelength” value was 821 nm; the “φ, quantum yield” value was found to be 0.10.

As for `CCCN1/C(=C/C=C2\CCCC(/C=C/C3=[N+](CCC)c4ccccc4C3(C)C)=C2N(CCCc2ccccc2)C(C)=O)C(C)(C)c2ccccc21` [CyNA-335], in series [1], the “F/Fo … vs 0 hours” value is given as 50 and the “max RFU, maximum relative fluorescence units” value is given as 167.9. In addition, in series [2], the “λabs, absorbance maximum wavelength” value stood at 804 nm; the “λem, fluorescence maximum wavelength” value is given as 821 nm; the “φ, quantum yield” value amounted to 0.06.

Consider `CCCN1/C(=C/C=C2\CCCC(/C=C/C3=[N+](CCC)c4ccccc4C3(C)C)=C2N(Cc2c(OC)cc(OC)cc2OC)C(C)=O)C(C)(C)c2ccccc21` [CyNA-336], for which, in series [1], the “F/Fo … vs 0 hours” value is 85 and the “max RFU, maximum relative fluorescence units” value turned out to be 827.7. In addition, in series [2], the “λabs, absorbance maximum wavelength” value is given as 804 nm; the “λem, fluorescence maximum wavelength” value is 820 nm; the “φ, quantum yield” value came to 0.11.

On to `CCCN1/C(=C/C=C2\CCCC(/C=C/C3=[N+](CCC)c4ccccc4C3(C)C)=C2N(Cc2cccc(Br)c2)C(C)=O)C(C)(C)c2ccccc21` [CyNA-341], for which, in series [1], the “F/Fo … vs 0 hours” value is on record as 100 and the “max RFU, maximum relative fluorescence units” value was 259.2. Also, in series [2], the “λabs, absorbance maximum wavelength” value was found to be 805 nm; the “λem, fluorescence maximum wavelength” value came out at 822 nm; the “φ, quantum yield” value came out at 0.10.

As to `CCCN1/C(=C/C=C2\CCCC(/C=C/C3=[N+](CCC)c4ccccc4C3(C)C)=C2N(CCc2ccc(O)cc2)C(C)=O)C(C)(C)c2ccccc21` [CyNA-346], in series [1], the “F/Fo … vs 0 hours” value is recorded as 69 and the “max RFU, maximum relative fluorescence units” value turned out to be 434.2. Also, in series [2], the “λabs, absorbance maximum wavelength” value was 804 nm; the “λem, fluorescence maximum wavelength” value stood at 822 nm; the “φ, quantum yield” value was determined as 0.07.

On to `CCCN1/C(=C/C=C2\CCCC(/C=C/C3=[N+](CCC)c4ccccc4C3(C)C)=C2N(Cc2cccc(F)c2F)C(C)=O)C(C)(C)c2ccccc21` [CyNA-351], for which, in series [1], the “F/Fo … vs 0 hours” value is 52 and the “max RFU, maximum relative fluorescence units” value is 555.4. Moreover, in series [2], the “λabs, absorbance maximum wavelength” value came to 805 nm; the “λem, fluorescence maximum wavelength” value was found to be 818 nm; the “φ, quantum yield” value came to 0.10.

As for `CCCN1/C(=C/C=C2\CCCC(/C=C/C3=[N+](CCC)c4ccccc4C3(C)C)=C2N(Cc2cc(OC)c(OC)c(OC)c2)C(C)=O)C(C)(C)c2ccccc21` [CyNA-356], in series [1], the “F/Fo … vs 0 hours” value was determined as 83 and the “max RFU, maximum relative fluorescence units” value turned out to be 892.3. In addition, in series [2], the “λabs, absorbance maximum wavelength” value is given as 804 nm; the “λem, fluorescence maximum wavelength” value worked out at 820 nm; the “φ, quantum yield” value is given as 0.12.

Take `CCCN1/C(=C/C=C2\CCCC(/C=C/C3=[N+](CCC)c4ccccc4C3(C)C)=C2N(Cc2ccc(OC)cc2OC)C(C)=O)C(C)(C)c2ccccc21` [CyNA-358]: in series [1], the “F/Fo … vs 0 hours” value came to 100 and the “max RFU, maximum relative fluorescence units” value was determined as 487.4. Besides, in series [2], the “λabs, absorbance maximum wavelength” value is given as 805 nm; the “λem, fluorescence maximum wavelength” value is listed as 819 nm; the “φ, quantum yield” value was found to be 0.14.

`CCCN1/C(=C/C=C2\CCCC(/C=C/C3=[N+](CCC)c4ccccc4C3(C)C)=C2N(CCc2ccc([N+](=O)[O-])cc2)C(C)=O)C(C)(C)c2ccccc21` [CyNA-359]: in series [1], the “F/Fo … vs 0 hours” value is reported as 85 and the “max RFU, maximum relative fluorescence units” value amounted to 527.6. In series [2], the “λabs, absorbance maximum wavelength” value was determined as 805 nm; the “λem, fluorescence maximum wavelength” value stood at 821 nm; the “φ, quantum yield” value turned out to be 0.11.

`CCCN1/C(=C/C=C2\CCCC(/C=C/C3=[N+](CCC)c4ccccc4C3(C)C)=C2N(Cc2ccccc2Cl)C(C)=O)C(C)(C)c2ccccc21` [CyNA-364]: in series [1], the “F/Fo … vs 0 hours” value is recorded as 98 and the “max RFU, maximum relative fluorescence units” value was 264.8. Besides, in series [2], the “λabs, absorbance maximum wavelength” value was 804 nm; the “λem, fluorescence maximum wavelength” value was found to be 821 nm; the “φ, quantum yield” value is 0.05.

On to `CCCCN(C(C)=O)C1=C(/C=C/C2=[N+](CCC)c3ccccc3C2(C)C)CCC/C1=C\C=C1\N(CCC)c2ccccc2C1(C)C` [CyNA-373], for which, in series [1], the “F/Fo … vs 0 hours” value is recorded as 76 and the “max RFU, maximum relative fluorescence units” value worked out at 567.2. In series [2], the “λabs, absorbance maximum wavelength” value is listed as 805 nm; the “λem, fluorescence maximum wavelength” value is recorded as 820 nm; the “φ, quantum yield” value was 0.07.

With `CCCN1/C(=C/C=C2\CCCC(/C=C/C3=[N+](CCC)c4ccccc4C3(C)C)=C2N(Cc2ccccc2F)C(C)=O)C(C)(C)c2ccccc21` [CyNA-375], in series [1], the “F/Fo … vs 0 hours” value was 98 and the “max RFU, maximum relative fluorescence units” value is on record as 533.7. Besides, in series [2], the “λabs, absorbance maximum wavelength” value worked out at 804 nm; the “λem, fluorescence maximum wavelength” value amounted to 821 nm; the “φ, quantum yield” value is 0.07.

Take `CCCN1/C(=C/C=C2\CCCC(/C=C/C3=[N+](CCC)c4ccccc4C3(C)C)=C2N(CC2CCCCC2)C(C)=O)C(C)(C)c2ccccc21` [CyNA-382]: in series [1], the “F/Fo … vs 0 hours” value was determined as 85 and the “max RFU, maximum relative fluorescence units” value turned out to be 294.6. Further, in series [2], the “λabs, absorbance maximum wavelength” value worked out at 804 nm; the “λem, fluorescence maximum wavelength” value is given as 820 nm; the “φ, quantum yield” value amounted to 0.08.

Consider `CCCN1/C(=C/C=C2\CCCC(/C=C/C3=[N+](CCC)c4ccccc4C3(C)C)=C2N(Cc2cccc(OC)c2)C(C)=O)C(C)(C)c2ccccc21` [CyNA-387], for which, in series [1], the “F/Fo … vs 0 hours” value is recorded as 75 and the “max RFU, maximum relative fluorescence units” value is 739.9. In series [2], the “λabs, absorbance maximum wavelength” value amounted to 804 nm; the “λem, fluorescence maximum wavelength” value came to 820 nm; the “φ, quantum yield” value came to 0.07.

Regarding `CCCN1/C(=C/C=C2\CCCC(/C=C/C3=[N+](CCC)c4ccccc4C3(C)C)=C2N(Cc2ccccc2OC)C(C)=O)C(C)(C)c2ccccc21` [CyNA-388], in series [1], the “F/Fo … vs 0 hours” value was found to be 97 and the “max RFU, maximum relative fluorescence units” value amounted to 1398.5. In addition, in series [2], the “λabs, absorbance maximum wavelength” value turned out to be 803 nm; the “λem, fluorescence maximum wavelength” value came to 819 nm; the “φ, quantum yield” value is given as 0.14.

With `CCCN1/C(=C/C=C2\CCCC(/C=C/C3=[N+](CCC)c4ccccc4C3(C)C)=C2N(CCc2ccc(OC)cc2)C(C)=O)C(C)(C)c2ccccc21` [CyNA-395], in series [1], the “F/Fo … vs 0 hours” value is reported as 95 and the “max RFU, maximum relative fluorescence units” value is given as 234.3. In addition, in series [2], the “λabs, absorbance maximum wavelength” value worked out at 804 nm; the “λem, fluorescence maximum wavelength” value turned out to be 820 nm; the “φ, quantum yield” value is reported as 0.07.

On to `CCCN1/C(=C/C=C2\CCCC(/C=C/C3=[N+](CCC)c4ccccc4C3(C)C)=C2N(Cc2ccc(C)cc2)C(C)=O)C(C)(C)c2ccccc21` [CyNA-396], for which, in series [1], the “F/Fo … vs 0 hours” value was determined as 96 and the “max RFU, maximum relative fluorescence units” value is given as 736.1. Further, in series [2], the “λabs, absorbance maximum wavelength” value was found to be 804 nm; the “λem, fluorescence maximum wavelength” value is on record as 820 nm; the “φ, quantum yield” value amounted to 0.09.

For the compound `CCCN1/C(=C/C=C2\CCCC(/C=C/C3=[N+](CCC)c4ccccc4C3(C)C)=C2N(Cc2cccc(C)c2)C(C)=O)C(C)(C)c2ccccc21` [CyNA-398], in series [1], the “F/Fo … vs 0 hours” value worked out at 99 and the “max RFU, maximum relative fluorescence units” value was 540.2. In series [2], the “λabs, absorbance maximum wavelength” value is reported as 804 nm; the “λem, fluorescence maximum wavelength” value is given as 819 nm; the “φ, quantum yield” value is listed as 0.07.

Turning to `CCCN1/C(=C/C=C2\CCCC(/C=C/C3=[N+](CCC)c4ccccc4C3(C)C)=C2N(Cc2ccc(F)cc2F)C(C)=O)C(C)(C)c2ccccc21` [CyNA-399], in series [1], the “F/Fo … vs 0 hours” value is 95 and the “max RFU, maximum relative fluorescence units” value is given as 775.5. For the same compound, in series [2], the “λabs, absorbance maximum wavelength” value is given as 804 nm; the “λem, fluorescence maximum wavelength” value was found to be 819 nm; the “φ, quantum yield” value is reported as 0.10.

`CCCN1/C(=C/C=C2\CCCC(/C=C/C3=[N+](CCC)c4ccccc4C3(C)C)=C2N(Cc2ccccn2)C(C)=O)C(C)(C)c2ccccc21` [CyNA-401]: in series [1], the “F/Fo … vs 0 hours” value was 91 and the “max RFU, maximum relative fluorescence units” value worked out at 856.5. Further, in series [2], the “λabs, absorbance maximum wavelength” value was determined as 805 nm; the “λem, fluorescence maximum wavelength” value is given as 820 nm; the “φ, quantum yield” value turned out to be 0.10.

(Values after patent publication US9201014B2, “Development of photostable near-IR cyanine dyes for in vivo imaging” (National University of Singapore, priority 2010, dated 2015).)
